Measured values as given in PubChem BioAssay (NCI).
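All cell lines were grown in 96-well plates and treated with compound for 48 hours. GI50 is the concentration that inhibits growth by half. TGI is the concentration that stops growth completely.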

Experiments:
Test in all cases: NCI-60 cell line screen, 48 h
[1] = test system: SN12C renal
[2] = test system: M14 melanoma
[3] = test system: SF-268 CNS
[4] = test system: SW-620 colon
[5] = test system: ACHN renal
[6] = test system: SNB-75 CNS
[7] = test system: HOP-62 NSCLC
[8] = test system: SR leukemia
[9] = test system: MALME-3M melanoma
[10] = test system: TK-10 renal

| Structure (SMILES) | TGI [1] | TGI [2] | TGI [3] | TGI [4] | TGI [5] | TGI [6] | TGI [7] | TGI [8] | TGI [9] | TGI [10] | GI50 [1] | GI50 [2] | GI50 [3] | GI50 [4] | GI50 [5] | GI50 [6] | GI50 [7] | GI50 [8] | GI50 [9] | GI50 [10] |
| --- | --- | --- | --- | --- | --- | --- | --- | --- | --- | --- | --- | --- | --- | --- | --- | --- | --- | --- | --- | --- |
| CCOC(=O)NC1CC2CCC1(OC)C=C2C (stereo not given) | > 100 µM | > 100 µM | > 100 µM | > 100 µM | > 100 µM | > 100 µM | > 100 µM | > 100 µM | > 100 µM | > 100 µM |  |  |  |  |  |  |  |  |  |  |
| O=S(=O)(Nc1ccccn1)c1ccc(N=Nc2ccc(O)c3ncccc23)cc1 | > 29.8 µM | 5.55 µM | 50.7 µM | 25.5 µM | 9.64 µM | 3.33 µM | 8.88 µM | 19.3 µM | 7.03 µM | 7.31 µM | 1020 nM | 1210 nM | 1.12 µM | 952 nM | 976 nM | 0.675 µM | 1.14 µM | 647 nM | 2.59 µM | 2.82 µM |
| COc1ccc2nc(-c3cc4c([nH]c5ccccc54)c(-c4ccc(F)c(F)c4)n3)[nH]c2c1 | 23.5 µM | 16.9 µM | 69.6 µM | 23.7 µM | 12.6 µM | 29.7 µM | 25.5 µM | 6.7 µM | 34.3 µM | 17.3 µM | 3970 nM | 4020 nM | 5.8 µM | 4820 nM | 3200 nM | 14.2 µM | 10.9 µM | 1970 nM | 16.3 µM | 4.29 µM |
